# Source: paper PMC7280195, “Simple ammonium salts acting on sigma-1 receptors yield potential treatments for cancer and depression” (Scientific Reports, 2020)
# Read-outs that look alike come from different tables or passages of the source.
# Legend:
# [1] = target: T1, sigma-2 receptor (Homo sapiens, UniProt Q5BJF2); assay: biochemical; type: binding
# T1 construct: MCF7 cells were suspended in sigma-2 assay buffer (50 mM Tris-HCl; pH 8.0), sonicated (1 minute) and the homogenate was centrifuged; endogenous in cells; host or cells: MCF7 cells (gift), membrane pellet
# T1 sequence (Q5BJF2 whole entry): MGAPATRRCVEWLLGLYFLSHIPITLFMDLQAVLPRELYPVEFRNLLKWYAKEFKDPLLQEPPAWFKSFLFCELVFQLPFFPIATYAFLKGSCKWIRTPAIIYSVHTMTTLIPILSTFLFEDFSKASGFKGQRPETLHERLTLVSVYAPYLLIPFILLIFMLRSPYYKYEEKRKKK
# [2] = target: muscarinic receptor; set-up: method as in PMID 11834244; details: cited from earlier work
# [3] = tested on: mice; assay: Forced-swim test; type: in vivo
# [4] = tested on: MDA-MB-468 cells; assay: cells; type: cell-based
# [5] = tested on: MCF7 cells; type: cell-based
# [6] = tested on: MDA-MB-468 cells; assay: Fura-2 cytoplasmic calcium measurement in MDA-MB-468 cells; type: cell-based
# [7] = target: muscarinic acetylcholine receptor; type: binding, rat; details: for mACh R affinity pKi ± SEM (n) / Ki: rat brain membranes; for mACh R affinity pKi ± SEM (n): 1.35 nM [3H] QNB; for Ki: read-out: mACh R affinity Ki; for mACh R Ki/σ-1 R Ki: ratio between Ki values
# [8] = tested on: MAC13 cells; assay: MTS assay in MAC13 cells in vitro; type: cell-based, mouse; details: mean ± SEM, n = 6
# Procedure: Cells (10,000 cells per well, 100 μl) were seeded into 96-well plates and allowed to adhere overnight. The following day drugs were added and cells were permitted to proliferate for 24 hours before the addition of 10 μl CellTiter 96 AQueous Non-Radioactive Cell Proliferation Assay reagent (Promega, Southampton, UK) as previously described. Absorbance (490 nm) readings were taken at 0, 1, 2 and 3 hours to monitor formazan formation and rates of metabolic activity were compared.
# [9] = tested on: MAC13 tumours
# [10] = target: noradrenaline transporter; details: read-out: Ki noradrenaline transport, previously published; cited from earlier work
# [11] = tested on: mice; assay: Tail suspension test; type: in vivo
# Procedure: Animals were acclimatised to laboratory conditions before the experiment. Each animal was used only once. […] All drugs were dissolved in normal saline and different doses were administered intraperitoneally in a fixed volume of 1 ml.100 g^−1 body weight 30 minutes before the animals were subjected to the test. […] Each mouse was considered immobile when it hung passively and completely motionless. The total immobility period was recorded and compared to vehicle control group.
# [12] = tested on: mice; assay: Locomotor activity (Actophotometer); type: in vivo; details: control 140 ± 15
# Procedure: All drugs were dissolved in normal saline and different doses were administered intraperitoneally in a fixed volume of 1 ml.100 g^−1 body weight 30 minutes before the animals were subjected to the test.
# Locomotor activity (ambulations) was measured by using a computerised Actophotometer (IMCORP, India). […] Mice were allowed to acclimatise to the observation chamber for a period of 2 minutes. The activity was monitored continuously for a period of 15 minutes. Locomotion was expressed in terms of total photobeam counts per 15 minutes per animal and compared to vehicle control groups as previously described.
# [13] = target: human 5-HT transporter (Homo sapiens, UniProt P31645); type: cell-based
# Chain of human 5-HT transporter (P31645 whole entry): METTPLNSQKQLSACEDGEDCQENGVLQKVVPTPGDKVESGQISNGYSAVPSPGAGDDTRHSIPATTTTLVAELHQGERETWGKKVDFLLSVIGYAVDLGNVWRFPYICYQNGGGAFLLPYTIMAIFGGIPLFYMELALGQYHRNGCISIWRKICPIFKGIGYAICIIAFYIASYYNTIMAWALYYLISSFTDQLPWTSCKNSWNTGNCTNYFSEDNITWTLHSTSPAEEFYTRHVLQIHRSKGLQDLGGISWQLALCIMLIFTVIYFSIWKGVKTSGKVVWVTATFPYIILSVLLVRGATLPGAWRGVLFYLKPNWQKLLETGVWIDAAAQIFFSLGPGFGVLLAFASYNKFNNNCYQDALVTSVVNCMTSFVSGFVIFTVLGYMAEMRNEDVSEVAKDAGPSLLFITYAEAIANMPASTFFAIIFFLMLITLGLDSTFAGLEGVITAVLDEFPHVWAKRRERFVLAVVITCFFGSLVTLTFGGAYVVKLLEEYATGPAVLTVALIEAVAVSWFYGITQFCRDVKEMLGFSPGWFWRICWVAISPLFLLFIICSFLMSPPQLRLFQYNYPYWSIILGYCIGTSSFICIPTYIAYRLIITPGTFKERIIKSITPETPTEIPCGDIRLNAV
# [14] = target: T2, human dopamine transporter (Homo sapiens, UniProt Q01959); assay: Monoamine transporter uptake assay, 293 cells expressing dopamine transporter; type: cell-based
# T2 construct: expressed in transfected cells
# T2 sequence (Q01959 whole entry): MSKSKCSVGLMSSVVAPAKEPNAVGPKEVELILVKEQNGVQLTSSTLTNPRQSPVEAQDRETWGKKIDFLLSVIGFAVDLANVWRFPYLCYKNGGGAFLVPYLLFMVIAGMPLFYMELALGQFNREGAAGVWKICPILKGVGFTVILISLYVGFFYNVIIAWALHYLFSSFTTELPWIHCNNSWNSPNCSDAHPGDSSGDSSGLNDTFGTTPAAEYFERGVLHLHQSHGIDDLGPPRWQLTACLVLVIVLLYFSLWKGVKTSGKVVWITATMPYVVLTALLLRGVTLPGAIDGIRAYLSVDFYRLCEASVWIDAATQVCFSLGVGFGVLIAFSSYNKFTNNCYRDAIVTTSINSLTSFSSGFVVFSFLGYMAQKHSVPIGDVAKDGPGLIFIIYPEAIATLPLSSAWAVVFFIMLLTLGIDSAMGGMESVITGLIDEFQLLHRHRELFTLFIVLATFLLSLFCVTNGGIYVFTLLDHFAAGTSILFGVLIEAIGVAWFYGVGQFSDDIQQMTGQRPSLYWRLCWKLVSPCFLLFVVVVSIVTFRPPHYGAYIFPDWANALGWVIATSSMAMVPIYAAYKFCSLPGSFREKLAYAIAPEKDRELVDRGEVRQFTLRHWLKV
# [15] = target: human noradrenaline transporter (Homo sapiens, UniProt P23975); assay: Monoamine transporter uptake assay, 293 cells expressing noradrenaline transporter; type: cell-based
# Chain of human noradrenaline transporter (P23975 whole entry): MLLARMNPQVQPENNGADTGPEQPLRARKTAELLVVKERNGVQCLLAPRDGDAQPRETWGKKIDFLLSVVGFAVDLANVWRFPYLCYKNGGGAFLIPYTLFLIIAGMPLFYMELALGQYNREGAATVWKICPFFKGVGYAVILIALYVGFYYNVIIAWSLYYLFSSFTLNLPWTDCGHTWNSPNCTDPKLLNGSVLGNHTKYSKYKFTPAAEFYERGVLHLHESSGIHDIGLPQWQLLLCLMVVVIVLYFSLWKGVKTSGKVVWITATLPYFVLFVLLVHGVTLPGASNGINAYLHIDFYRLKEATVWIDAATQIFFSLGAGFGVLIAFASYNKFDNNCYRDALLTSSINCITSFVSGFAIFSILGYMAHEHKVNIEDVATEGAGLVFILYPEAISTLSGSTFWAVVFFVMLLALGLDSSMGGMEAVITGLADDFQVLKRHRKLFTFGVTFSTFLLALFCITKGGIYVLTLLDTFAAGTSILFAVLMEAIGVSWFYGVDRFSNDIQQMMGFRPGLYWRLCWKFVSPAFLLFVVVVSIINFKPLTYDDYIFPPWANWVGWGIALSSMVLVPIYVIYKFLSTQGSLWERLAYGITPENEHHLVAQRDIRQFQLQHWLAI
# [16] = dipentylammonium 5 mg.kg−1 plus BD1047 4 mg.kg−1
smiles,measurement,setting,value
NC1C2CC3CC(C2)CC1C3 (stereo not drawn) [2-adamantyl],σ-2 R affinity pKi ± SEM (n),[1],5.5 ± 0.2 (3)
same,Ki,[1]; read-out: σ-2 R affinity Ki,3.5 µM
CC(C)=CCN1CC[C@]2(C)c3cc(O)ccc3C[C@H]1[C@H]2C [(+) pentazocine],pKi muscarinic receptor,[2],6.29 ± 0.06
"CN(C)CCN(C)CCc1ccc(Cl)c(Cl)c1 [BD1047, N’-[2-(3,4-dichlorophenyl)ethyl]-N,N,N’-trimethylethane-1,2-diamine, reference compound]","time spent immobile, forced-swim test","[3]; ip, 4 mg/kg, 0.1 h",217 ± 17 s
"CCCCC(CC)CNCC(CC)CCCC (stereo not drawn) [Bis(2-ethylhexyl), bis(2-ethylhexyl)ammonium]",σ-2 R affinity pKi ± SEM (n),[1],4.0 ± 0.2 (3)
same,Ki,[1]; read-out: σ-2 R affinity Ki,91 µM
same,pIC50 reduction of cell metabolism,[4],3.3 ± 0.1
same,"pIC50 reduction of cell metabolism, non-targeting control",[4],3.37 ± 0.08
same,effect on MCF7 cells in MTS assay,[5],without effect
same,pEC50 calcium response,[6]; Fura-2 loaded MDA-MB-468 cells,2.9 ± 0.1
same,mACh R affinity pKi ± SEM (n),[7],3.9 ± 0.2 (6)
same,Ki,[7],120 µM
same,mACh R Ki/σ-1 R Ki,[7],4.1
same,pIC50 reduction in MAC13 cell metabolism,[8],5.3 ± 0.2
same,MAC13 tumour growth compared to vehicle control,"[9]; 10 mg.kg−1 i.v. daily from day 12, P < 0.001",statistically significant reduction in tumour growth
same,tolerability in tumour-bearing mice,"[9]; 10 mg.kg−1 i.v. daily, grooming activity maintained",no negative signs
CCCCN [Butyl],σ-2 R affinity pKi ± SEM (n),[1],3.26 ± 0.05 (3)
same,Ki,[1]; read-out: σ-2 R affinity Ki,550 µM
"CCCCCCCCCCN [Decyl, decylammonium]",σ-2 R affinity pKi ± SEM (n),[1],5.41 ± 0.07 (3)
same,Ki,[1]; read-out: σ-2 R affinity Ki,3.9 µM
"CNCCCN1c2ccccc2CCc2ccccc21 [Desipramine, desipramine]",Ki,[10],0.0043 µM
"CCC(C)NC(C)CC (stereo not drawn) [Di-sec-butyl, di-sec-butylammonium]",σ-2 R affinity pKi ± SEM (n),[1],5.2 ± 0.2 (3)
same,Ki,[1]; read-out: σ-2 R affinity Ki,6.3 µM
CCCCNCCCC [Dibutyl],σ-2 R affinity pKi ± SEM (n),[1],5.64 ± 0.07 (3)
same,Ki,[1]; read-out: σ-2 R affinity Ki,2.3 µM
"C1CCC(NC2CCCCC2)CC1 [Dicyclohexyl, dicyclohexylammonium]",Ki,[1],0.138 µM
same,IC50,"[4]; Homo sapiens, MDA-MB-468, 24 h, read-out: pIC50 reduction of cell metabolism (converted)",126 µM
same,effect on MCF7 cells in MTS assay,[5]; MCF7 cells (sigma-2 only),without effect
CCNCC.Cl [Diethyl],σ-2 R affinity pKi ± SEM (n),[1],<3 (3)
CC(C)CNCC(C)C [Diisobutyl],σ-2 R affinity pKi ± SEM (n),[1],5.2 ± 0.2 (3)
same,Ki,[1]; read-out: σ-2 R affinity Ki,6.6 µM
CC(C)NC(C)C [Diisopropyl],σ-2 R affinity pKi ± SEM (n),[1],4.1 ± 0.1 (3)
same,Ki,[1]; read-out: σ-2 R affinity Ki,71 µM
CNC [Dimethyl],σ-2 R affinity pKi ± SEM (n),[1],<3 (3)
"CCCCCCCCNCCCCCCCC [Dioctyl, dioctylammonium]",σ-2 R affinity pKi ± SEM (n),[1],7.9 ± 0.5 (3)
same,Ki,[1]; read-out: Ki for sigma-2 receptors,0.013 µM
same,Ki,[1]; read-out: σ-2 R affinity Ki,0.014 µM
same,pIC50 reduction of cell metabolism,[4],5.0 ± 0.2
same,behaviour in the calcium buffer,[6]; calcium response could not be assessed,precipitation was observed
"CCCCCNCCCCC [Dipentyl, dipentylammonium]",σ-2 R affinity pKi ± SEM (n),[1],6.9 ± 0.2 (3)
same,Ki,[1]; read-out: σ-2 R affinity Ki,0.12 µM
same,mACh R affinity pKi ± SEM (n),[7],3.4 ± 0.2 (5)
same,Ki,[7],380 µM
same,mACh R Ki/σ-1 R Ki,[7],8840
same,"time spent immobile, forced-swim test","[3]; 5 mg.kg−1 i.p., 6 minutes, control 233 ± 10",80 ± 13 s
same,"time spent immobile, forced-swim test",[3]; [16],185 ± 5 s
same,"time spent immobile, tail suspension test","[11]; 5 mg.kg−1, 6 minutes, control 235 ± 19",116 ± 7 s
same,"time spent immobile, tail suspension test",[11]; [16],182 ± 30 s
same,locomotion,[12]; 5 mg.kg−1 alone,128 ± 19 events in 15 minutes
same,locomotion,[12]; [16],114 ± 14 events in 15 minutes
same,pIC50 serotonin reuptake,[13],3.0 ± 0.2
same,IC50,[13]; read-out: IC50 serotonin reuptake,1100 µM
same,pIC50 dopamine transport,[14],3.2 ± 0.2
same,IC50,[14]; read-out: IC50 dopamine transport,600 µM
same,pIC50 noradrenaline transport,[15],3.6 ± 0.1
same,IC50,[15]; read-out: IC50 noradrenaline transport,200 µM
CCCNCCC.Cl [Dipropyl],σ-2 R affinity pKi ± SEM (n),[1],4.10 ± 0.07 (3)
same,Ki,[1]; read-out: σ-2 R affinity Ki,79 µM
"CNCCC(Oc1ccc(C(F)(F)F)cc1)c1ccccc1 (stereo not drawn) [Fluoxetine, fluoxetine, reference compound]","time spent immobile, forced-swim test","[3]; 10 mg.kg−1 i.p., 6 minutes, control 233 ± 10",153 ± 19 s
same,"time spent immobile, tail suspension test","[11]; 10 mg.kg−1, 6 minutes, control 235 ± 19",126 ± 22 s
